Format in all cases: biochemical
One experiment deals with T1, MMP-16 (Homo sapiens, UniProt P51512).
T1 construct: purchased R&D Systems 1785-MP
Description: In vitro MMP-16 inhibition test. Conditions: human MMP-16. The source says:
(§1) The MMP-mediated amidolytic cleavage of a suitable peptide substrate leads to an increase in fluorescent light here too. The signal intensity of the fluorescent light is directly proportional to the enzyme activity. The active concentration of a test compound at which half the enzyme is inhibited (50% signal intensity of the fluorescent light) is reported as the IC50 value.
Recombinant MMP-16 (R&D Systems, 1785-MP) is enzymatically activated in accordance with the manufacturer's instructions using recombinant furin (R&D Systems, 1503-SE). 1 μl of the test compound to be analysed (as a solution in DMSO, suitable concentrations e.g. 1 nM to 30 μM) is pipetted into 24 μl of activated enzyme (final concentration e.g. 1 nM) in reaction buffer (50 mM Tris/HCl pH 7.5, 10 mM CaCl2, 150 mM NaCl, 0.05% Brij®-35) in a white 384-hole microtiter plate (MTP). The enzymatic reaction is started by adding the intramolecularly quenched Mca-Lys-Pro-Leu-Gly-Leu-Dpa(Dnp)-Ala-Arg-NH2 substrate (final concentration e.g. 5 μM; R&D Systems, ES-010), so as to result in a total test volume of 50 μl. The course of the MMP-16 reaction is measured by measuring the fluorescence intensity (excitation 320 nm, emission 410 nm) over a suitable period of time (e.g. over 120 min at a temperature of 32° C.).

The target of the next experiment is T2, MMP-10 (Homo sapiens, UniProt P09238).
T2 construct: purchased R&D Systems 910-MP
Nature of the experiment: In vitro MMP-10 inhibition test. Conditions: human MMP-10.
Text: as §1
(§2) Recombinant MMP-10 (R&D Systems, 910-MP) is chemically activated in accordance with the manufacturer's instructions using APMA. 1 μl of the test compound to be analysed (as a solution in DMSO, suitable concentrations e.g. 1 nM to 30 μM) is pipetted into 24 μl of activated enzyme (final concentration e.g. 2 nM) in reaction buffer (50 mM Tris/HCl pH 7.5, 10 mM CaCl2, 150 mM NaCl, 0.05% Brij®-35) in a white 384-hole microtiter plate (MTP). The enzymatic reaction is started by adding the intramolecularly quenched Mca-Arg-Pro-Lys-Pro-Val-Glu-Nval-Trp-Arg-Lys(Dnp)-NH2 substrate (final concentration e.g. 10 μM; R&D Systems, ES-002), so as to result in a total test volume of 50 μl. The course of the MMP-10 reaction is measured by measuring the fluorescence intensity (excitation 320 nm, emission 410 nm) over a suitable period of time (e.g. over 120 min at a temperature of 32° C.).

The target in the next experiment is T3, MMP-1 (Homo sapiens, UniProt P03956).
T3 construct: purchased R&D Systems 901-MP
T3 sequence (P03956 100-469): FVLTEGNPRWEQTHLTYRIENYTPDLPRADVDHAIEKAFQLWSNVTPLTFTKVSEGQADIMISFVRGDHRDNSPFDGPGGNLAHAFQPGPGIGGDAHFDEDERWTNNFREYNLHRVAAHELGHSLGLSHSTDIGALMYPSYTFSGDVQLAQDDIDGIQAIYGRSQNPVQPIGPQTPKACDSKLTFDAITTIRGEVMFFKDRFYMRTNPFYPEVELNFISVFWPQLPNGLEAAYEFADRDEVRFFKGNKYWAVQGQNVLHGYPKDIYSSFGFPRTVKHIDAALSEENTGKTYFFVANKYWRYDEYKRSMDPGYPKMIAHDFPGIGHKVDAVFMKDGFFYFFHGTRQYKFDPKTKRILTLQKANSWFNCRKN
Nature of the experiment: In vitro MMP-1 inhibition test. As to conditions: human MMP-1.
Text: as §1
as §2, with “MMP-1” for “MMP-10”, “901-MP)” for “910-MP)”, “Mca-Pro-Leu-Gly-Leu-Dpa(Dnp)-Ala-Arg-NH2” for “Mca-Arg-Pro-Lys-Pro-Val-Glu-Nval-Trp-Arg-Lys(Dnp)-NH2”, “ES-001),” for “ES-002),”

In experiment [1] the target is T4, human macrophage elastase (HME/hMMP-12) (Homo sapiens, UniProt P39900).
T4 construct: purchased R&D Systems 917-MP
Description: In vitro HME inhibition test (standard or high-sensitivity). As to conditions: in some cases mean values, rounded to two significant figures. The gist of the method: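 Autoactivated HME (0.5 nM; high-sensitivity format 0.05 nM, ~16 h) with 5 μM quenched Mca-PLGLEEA-Dap(Dnp)-NH2 substrate in HEPES pH 7.4, NaCl, CaCl2, ZnCl2, EDTA, Brij buffer, 2 h at 37° C. Fluorescence at ex 323/em 393 nm; IC50 from signal versus concentration.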

Molecules are shown by their SMILES.

T2 sequence (P09238 99-476): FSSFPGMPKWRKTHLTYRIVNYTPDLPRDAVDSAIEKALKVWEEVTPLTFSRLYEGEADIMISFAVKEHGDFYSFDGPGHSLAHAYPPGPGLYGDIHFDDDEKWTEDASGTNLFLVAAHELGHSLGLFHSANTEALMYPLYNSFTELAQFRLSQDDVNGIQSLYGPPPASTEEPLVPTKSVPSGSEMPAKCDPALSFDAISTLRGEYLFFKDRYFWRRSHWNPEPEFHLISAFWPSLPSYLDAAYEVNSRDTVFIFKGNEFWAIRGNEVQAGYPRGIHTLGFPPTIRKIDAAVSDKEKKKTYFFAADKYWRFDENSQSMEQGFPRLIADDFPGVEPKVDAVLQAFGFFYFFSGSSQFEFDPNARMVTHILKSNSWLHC
T1 sequence (P51512 120-564 limits assumed): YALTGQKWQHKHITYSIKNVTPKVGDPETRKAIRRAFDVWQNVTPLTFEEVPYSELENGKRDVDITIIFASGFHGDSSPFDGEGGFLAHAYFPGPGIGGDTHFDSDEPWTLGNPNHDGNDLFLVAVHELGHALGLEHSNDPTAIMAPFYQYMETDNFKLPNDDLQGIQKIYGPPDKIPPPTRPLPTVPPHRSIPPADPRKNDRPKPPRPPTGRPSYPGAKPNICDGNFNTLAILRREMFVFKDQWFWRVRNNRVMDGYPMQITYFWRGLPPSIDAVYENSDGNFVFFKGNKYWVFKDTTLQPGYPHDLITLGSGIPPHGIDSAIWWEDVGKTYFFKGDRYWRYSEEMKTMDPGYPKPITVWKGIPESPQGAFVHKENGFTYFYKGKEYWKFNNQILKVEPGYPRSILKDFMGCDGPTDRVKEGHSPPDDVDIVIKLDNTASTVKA
T4 sequence (P39900 106-470): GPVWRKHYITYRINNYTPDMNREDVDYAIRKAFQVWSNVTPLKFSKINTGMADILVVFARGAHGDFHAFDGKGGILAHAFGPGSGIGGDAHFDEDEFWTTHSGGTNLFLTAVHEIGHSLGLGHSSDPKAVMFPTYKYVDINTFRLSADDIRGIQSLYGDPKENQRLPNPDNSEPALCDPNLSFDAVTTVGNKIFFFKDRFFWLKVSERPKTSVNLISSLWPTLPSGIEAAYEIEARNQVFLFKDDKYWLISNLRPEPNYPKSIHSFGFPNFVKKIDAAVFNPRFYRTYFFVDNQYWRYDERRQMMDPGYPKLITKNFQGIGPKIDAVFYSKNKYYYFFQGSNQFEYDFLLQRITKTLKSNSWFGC

As for `O=C(CC(CCn1nnc2ccccc2c1=O)C(=O)O)c1cc2cc(OCc3cccc(Cl)c3)ccc2o1` (racemic) [Example 50, (+/−)-4-{5-[(3-Chlorobenzyl)oxy]-1-benzofur-2-yl}-4-oxo-2-[2-(4-oxo-1,2,3-benzotriazin-3(4H)-yl)ethyl]butanoic acid], the half-inhibitory concentration (IC50) at MMP-16 was more than 40 µM; on MMP-10, 20 µM; against MMP-1, more than 40 µM; in experiment [1] it was 1.6 nM.
For `O=C(CC(CCn1nnc2ccc(C(F)(F)F)cc2c1=O)C(=O)O)c1noc2cc(OCC3CCOCC3)ccc12` (racemic) [Example 155, (+/−)-4-Oxo-2-{2-[4-oxo-6-(trifluoromethyl)-1,2,3-benzotriazin-3(4H)-yl]ethyl}-4-[6-(tetrahydro-2H-pyran-4-ylmethoxy)-1,2-benzoxazol-3-yl]butanoic acid], the IC50 on MMP-16 is 30 µM; on MMP-10, 5.1 µM; against MMP-1 it was more than 40 µM; in experiment [1], 0.39 nM.
For the compound `O=C(CC(CCn1nnc2ccccc2c1=O)C(=O)O)c1cc2cc(OCCc3ccccc3)ccc2o1` (single isomer, unassigned; (+)) [Example 21, (+)-4-Oxo-2-[2-(4-oxo-1,2,3-benzotriazin-3(4H)-yl)ethyl]-4-[5-(2-phenylethoxy)-1-benzofur-2-yl]butanoic acid], the IC50 is more than 40 µM against MMP-16, 13 µM against MMP-10, more than 40 µM at MMP-1 and 2.2 nM in experiment [1].
`CCCOc1ccc2cc(C(=O)CC(CCn3nnc4ccccc4c3=O)C(=O)O)oc2c1` (racemic) [Example 58, (+/−)-4-Oxo-2-[2-(4-oxo-1,2,3-benzotriazin-3(4H)-yl)ethyl]-4-(6-propoxy-1-benzofur-2-yl)butanoic acid]: the IC50 against MMP-16 was more than 40 µM; on MMP-10 it was more than 40 µM; on MMP-1, more than 40 µM; in experiment [1], 5 nM.
`CCCCCCOc1ccc2c(C(=O)CC(CCn3nnc4ccccc4c3=O)C(=O)O)coc2c1` (single isomer, unassigned; (+)) [Example 100, (+)-4-[6-(Hexyloxy)-1-benzofur-3-yl]-4-oxo-2-[2-(4-oxo-1,2,3-benzotriazin-3(4H)-yl)ethyl]butanoic acid]: the IC50 is more than 40 µM against MMP-16, 11 µM against MMP-10, more than 40 µM at MMP-1 and 0.18 nM in experiment [1].
Turning to `O=C(O)[C@H]1[C@H](Cn2nnc3ccc(C(F)(F)F)cc3c2=O)CC[C@@H]1C(=O)c1cc2cc(OCCc3ccccc3)ccc2o1` (racemic) [Example 157, (+/−)-(1RS,2SR,5RS)-2-{[4-Oxo-6-(trifluoromethyl)-1,2,3-benzotriazin-3(4H)-yl]methyl}-5-{[5-(2-phenylethoxy)-1-benzofur-2-yl]carbonyl}cyclopentanecarboxylic acid (racemate)], the 50% inhibitory concentration (IC50) is 4.9 µM on MMP-16, 0.19 µM against MMP-10, more than 40 µM against MMP-1 and 0.055 nM in experiment [1].
Regarding `O=C(CC(CCn1nnc2ccccc2c1=O)C(=O)O)c1coc2cc(OCC3CCCC3)ccc12` (single isomer, unassigned; (+)) [Example 80, (+)-4-[6-(Cyclopentylmethoxy)-1-benzofur-3-yl]-4-oxo-2-[2-(4-oxo-1,2,3-benzotriazin-3(4H)-yl)ethyl]butanoic acid], the IC50 against MMP-16 was 21 µM; on MMP-10, 12 µM; against MMP-1, more than 40 µM; in experiment [1], 0.46 nM.
On the same counts, the results for `CCCCCOc1ccc2cc(C(=O)CC(CCn3nnc4ccccc4c3=O)C(=O)O)sc2c1` (racemic) [Example 118, (+/−)-4-Oxo-2-[2-(4-oxo-1,2,3-benzotriazin-3(4H)-yl)ethyl]-4-[6-(pentyloxy)-1-benzothiophen-2-yl]butanoic acid] are more than 40 µM, 10 µM, more than 40 µM and 2.7 nM.
As to `O=C(C[C@H](CCn1nnc2ccccc2c1=O)C(=O)O)c1noc2cc(OCC3CCOCC3)ccc12` (single isomer, unassigned; enantiomer 2) [Example 135], the IC50 against MMP-16 is 36 µM; against MMP-10 it was 9 µM; on MMP-1, more than 40 µM; in experiment [1] it was 0.16 nM.
As for `CCCCCCCOc1ccc2oc(C(=O)CC(CCn3nnc4ccccc4c3=O)C(=O)O)cc2c1` (racemic) [Example 31, (+/−)-4-[5-(Heptyloxy)-1-benzofur-2-yl]-4-oxo-2-[2-(4-oxo-1,2,3-benzotriazin-3(4H)-yl)ethyl]butanoic acid], the 50% inhibitory concentration (IC50) against MMP-16 was more than 40 µM; on MMP-10, more than 40 µM; against MMP-1, more than 40 µM; in experiment [1], 4.8 nM.
Regarding `O=C(CC(CCn1nnc2ccccc2c1=O)C(=O)O)c1cc2cc(OCCCc3ccccc3)ccc2o1` (racemic) [Example 37, (+/−)-4-Oxo-2-[2-(4-oxo-1,2,3-benzotriazin-3(4H)-yl)ethyl]-4-[5-(3-phenylpropoxy)-1-benzofur-2-yl]butanoic acid], the IC50 was more than 40 µM against MMP-16, 29 µM on MMP-10, more than 40 µM against MMP-1 and 4.6 nM in experiment [1].
For `O=C(O)[C@@H]1[C@@H](Cn2nnc3ccc(C(F)(F)F)cc3c2=O)CC[C@H]1C(=O)c1cc2cc(OCCc3ccccc3)ccc2o1` (single isomer, unassigned; enantiomer 2) [Example 159, (+)-(1RS,2SR,5RS)-2-{[4-Oxo-6-(trifluoromethyl)-1,2,3-benzotriazin-3(4H)-yl]methyl}-5-{[5-(2-phenylethoxy)-1-benzofur-2-yl]carbonyl}cyclopentanecarboxylic acid (enantiomer 2)], the IC50 at MMP-16 was 3 µM; against MMP-10, 0.34 µM; against MMP-1, more than 40 µM; in experiment [1], 0.063 nM.
On the same counts, the results for `NC(=O)c1cccc(COc2ccc3oc(C(=O)CC(CCn4nnc5ccccc5c4=O)C(=O)O)cc3c2)c1` (single isomer, unassigned; (+)) [Example 34, (+)-4-{5-[(3-Carbamoylbenzyl)oxy]-1-benzofur-2-yl}-4-oxo-2-[2-(4-oxo-1,2,3-benzotriazin-3(4H)-yl)ethyl]butanoic acid] are more than 40 µM, 14 µM, more than 40 µM and 1.1 nM.

The values above are taken from patent publication US20170121315A1, “HETEROBICYCLICALLY SUBSTITUTED 4-OXOBUTANE ACID DERIVATIVES AND USE THEREOF” (priority 2014, published 2017).
